“And” between values parts separate entries of the source, which are not always exact repeats. Identical values can stand only once. Inconclusive results and toxic doses are left out. Cut-off read from the data, not from the text of the source: active = T/C of 150% or more; inactive = T/C below 125%.
Test system: L1210 leukemia ip in BDF1 mice, survival T/C
Test: NCI In Vivo Anticancer Drug Screen. Data for tumor model L1210 Leukemia (intraperitoneal) in B6D2F1 (BDF1) mice
Details: endpoint: mean survival time, higher = longer survival
Outline: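 Each compound was tested against a transplantable tumor grown in mice. The endpoint was survival, with treated animals benchmarked against vehicle controls as a simple ratio.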

[1] = dose: 100.0 mg/kg/injection, schedule: Q04DX003 (ip), vehicle: other
[2] = dose: 200.0 mg/kg/injection, schedule: Q04DX003 (ip), vehicle: other
[3] = dose: 400.0 mg/kg/injection, schedule: Q04DX003 (ip), vehicle: other
[4] = dose: 100.0 mg/kg/injection, schedule: Q01DX009 (ip), vehicle: Klucel (hydroxypropylcellulose) (HPC)
[5] = dose: 100.0 mg/kg/injection, schedule: Q04DX003 (ip), vehicle: Klucel (hydroxypropylcellulose) (HPC)
[6] = dose: 200.0 mg/kg/injection, schedule: Q01DX009 (ip), vehicle: Klucel (hydroxypropylcellulose) (HPC)
[7] = dose: 200.0 mg/kg/injection, schedule: Q04DX003 (ip), vehicle: Klucel (hydroxypropylcellulose) (HPC)
[8] = dose: 400.0 mg/kg/injection, schedule: Q01DX009 (ip), vehicle: Klucel (hydroxypropylcellulose) (HPC)
[9] = dose: 400.0 mg/kg/injection, schedule: Q04DX003 (ip), vehicle: Klucel (hydroxypropylcellulose) (HPC)
[10] = dose: 100.0 mg/kg/injection, schedule: Q01DX009 (ip), vehicle: saline with Tween-80
[11] = dose: 200.0 mg/kg/injection, schedule: Q01DX009 (ip), vehicle: saline with Tween-80
[12] = dose: 25.0 mg/kg/injection, schedule: Q04DX003 (ip), vehicle: saline
[13] = dose: 100.0 mg/kg/injection, schedule: Q04DX003 (ip), vehicle: saline
[14] = dose: 400.0 mg/kg/injection, schedule: Q04DX003 (ip), vehicle: saline
[15] = dose: 100.0 mg/kg/injection, schedule: Q04DX003 (ip), vehicle: saline with Tween-80
[16] = dose: 200.0 mg/kg/injection, schedule: Q04DX003 (ip), vehicle: saline with Tween-80
[17] = dose: 400.0 mg/kg/injection, schedule: Q04DX003 (ip), vehicle: saline with Tween-80
[18] = dose: 100.0 mg/kg/injection, schedule: Q01DX009 (ip), vehicle: saline
[19] = dose: 100.0 mg/kg/injection, schedule: Q01DX001 (ip), vehicle: saline
[20] = dose: 200.0 mg/kg/injection, schedule: Q01DX001 (ip), vehicle: saline
[21] = dose: 200.0 mg/kg/injection, schedule: Q04DX003 (ip), vehicle: saline

Measured: T/C

COc1cc(/C=C2/CCCCC2=O)ccc1O
inactive: [1] 93 % of control | [2] 100 % of control | [3] 94 % of control

c1ccc2c(c1)CCc1cc3c(nc1-2)-c1ccccc1CC3
inactive: [4] 97 % of control | [5] 100 % of control | [6] 98 % of control | [7] 100 % of control | [8] 95 % of control | [9] 94 % of control

CC1(C)N=C(N)N=C(N)N1c1ccc(/C=C/C(=O)Nc2ccc(S(=O)(=O)F)cc2)cc1
inactive: dose: 75.0 mg/kg/injection, schedule: Q01DX001 (ip), vehicle: Klucel (hydroxypropylcellulose) (HPC) 97 % of control | dose: 150.0 mg/kg/injection, schedule: Q01DX001 (ip), vehicle: Klucel (hydroxypropylcellulose) (HPC) 92 % of control

CCCCCCOC(=O)C(O)c1ccccc1 (stereo unspecified)
inactive: dose: 50.0 mg/kg/injection, schedule: Q01DX009 (ip), vehicle: saline with Tween-80 95 % of control | [10] 98 % of control | [11] 95 % of control

CC(C)(O)c1cnc(OCc2ccccc2)nc1OCc1ccccc1
inactive: [4] 98 % of control | [1] 101 % of control | [6] 100 % of control | [2] 106 % of control | [8] 103 % of control | [3] 101 % of control

CS(=O)c1ncc2cnccn12 (stereo unspecified)
inactive: dose: 25.0 mg/kg/injection, schedule: Q01DX009 (ip), vehicle: water 100 % of control | [12] 107 % of control | dose: 50.0 mg/kg/injection, schedule: Q01DX009 (ip), vehicle: water 99 % of control | dose: 50.0 mg/kg/injection, schedule: Q04DX003 (ip), vehicle: saline 113 % of control | dose: 100.0 mg/kg/injection, schedule: Q01DX009 (ip), vehicle: water 102 % of control and 103 % of control | [13] 107 % of control | dose: 100.0 mg/kg/injection, schedule: Q04DX003 (ip), vehicle: water 110 % of control | dose: 200.0 mg/kg/injection, schedule: Q01DX009 (ip), vehicle: water 98 % of control

Cc1ccc(N2C(=O)CC(Sc3ccccc3N)C2=O)cc1 (stereo unspecified)
inactive: dose: 100.0 mg/kg/injection, schedule: Q01DX009 (ip), vehicle: other 114 % of control | [13] 86 % of control | dose: 200.0 mg/kg/injection, schedule: Q01DX009 (ip), vehicle: other 110 % of control | dose: 400.0 mg/kg/injection, schedule: Q01DX009 (ip), vehicle: other 93 % of control | [14] 86 % of control

CC(=O)Nc1ccc(OC(C)=O)cc1
inactive: [15] 106 % of control | [16] 106 % of control | [17] 116 % of control

Cc1ccc(S(=O)(=O)OC2CCN(C)CC2)cc1
inactive: dose: 6.0 mg/kg/injection, schedule: Q01DX009 (ip), vehicle: saline 91 % of control | dose: 12.0 mg/kg/injection, schedule: Q01DX009 (ip), vehicle: saline 93 % of control | dose: 12.0 mg/kg/injection, schedule: Q04DX003 (ip), vehicle: saline 102 % of control | dose: 25.0 mg/kg/injection, schedule: Q01DX005 (ip), vehicle: saline 97 % of control | dose: 25.0 mg/kg/injection, schedule: Q01DX009 (ip), vehicle: saline 93 % of control and 94 % of control | [12] 96 % of control | dose: 50.0 mg/kg/injection, schedule: Q01DX005 (ip), vehicle: saline 97 % of control | dose: 50.0 mg/kg/injection, schedule: Q01DX009 (ip), vehicle: saline 96 % of control | dose: 100.0 mg/kg/injection, schedule: Q01DX005 (ip), vehicle: saline 97 % of control and 99 % of control | [18] 112 % of control

Cc1ccc(C(C#N)c2ccc(N)cc2)cc1 (stereo unspecified)
inactive: dose: 50.0 mg/kg/injection, schedule: Q01DX001 (ip), vehicle: saline 98 % of control | [19] 101 % of control | [20] 101 % of control

Cc1c(-c2ccccc2Br)nc2ccccc2c1C(=O)O
inactive: [19] 96 % of control | [20] 89 % of control

O=C(O)c1cc(Br)ccc1O
inactive: dose: 100.0 mg/kg/injection, schedule: Q04DX002 (ip), vehicle: Klucel (hydroxypropylcellulose) (HPC) 98 % of control | dose: 200.0 mg/kg/injection, schedule: Q04DX002 (ip), vehicle: Klucel (hydroxypropylcellulose) (HPC) 98 % of control | dose: 400.0 mg/kg/injection, schedule: Q04DX002 (ip), vehicle: Klucel (hydroxypropylcellulose) (HPC) 102 % of control

O=C1NCCc2cc3c(cc21)OCO3
inactive: dose: 25.0 mg/kg/injection, schedule: Q04DX002 (ip), vehicle: saline 97 % of control | dose: 50.0 mg/kg/injection, schedule: Q04DX002 (ip), vehicle: saline 106 % of control | dose: 100.0 mg/kg/injection, schedule: Q04DX002 (ip), vehicle: saline 103 % of control

CC(=O)OC1CCC2(C)C(CCC3(C)C2CC=C2C4C(C)C(C)CCC4(C)CCC23C)C1(C)C (stereo unspecified)
inactive: [5] 91 % of control | [7] 88 % of control | [9] 90 % of control

Cc1ccc(NC(=S)NC(=O)C(C)Oc2ccccc2)cc1Cl (stereo unspecified)
inactive: [4] 94 % of control | [5] 100 % of control | [6] 101 % of control | [7] 101 % of control | [8] 101 % of control | [9] 109 % of control

C1CCC2(CC1)CCCCC2
inactive: dose: 5.0 mg/kg/injection, schedule: Q01DX001 (ip), vehicle: saline 97 % of control | dose: 10.0 mg/kg/injection, schedule: Q01DX001 (ip), vehicle: saline 103 % of control | dose: 20.0 mg/kg/injection, schedule: Q01DX001 (ip), vehicle: saline 93 % of control | dose: 40.0 mg/kg/injection, schedule: Q01DX001 (ip), vehicle: saline 97 % of control | dose: 80.0 mg/kg/injection, schedule: Q01DX001 (ip), vehicle: saline 100 % of control

O=S(O)OS(=O)O
inactive: [18] 93 % of control | [13] 100 % of control | dose: 200.0 mg/kg/injection, schedule: Q01DX009 (ip), vehicle: saline 90 % of control | [21] 104 % of control | dose: 400.0 mg/kg/injection, schedule: Q01DX009 (ip), vehicle: saline 86 % of control | [14] 102 % of control

O=C(OC1CC2CC1C1CCCCC21)c1ccc([N+](=O)[O-])cc1 (stereo unspecified)
inactive: dose: 50.0 mg/kg/injection, schedule: Q01DX001 (ip), vehicle: carboxymethylcellulose (CMC) 94 % of control | dose: 100.0 mg/kg/injection, schedule: Q01DX001 (ip), vehicle: carboxymethylcellulose (CMC) 105 % of control | dose: 200.0 mg/kg/injection, schedule: Q01DX001 (ip), vehicle: carboxymethylcellulose (CMC) 100 % of control | dose: 400.0 mg/kg/injection, schedule: Q01DX001 (ip), vehicle: carboxymethylcellulose (CMC) 96 % of control

CC(=O)Nc1ccc(NC(=O)c2ccccc2Cl)cc1
inactive: [10] 93 % of control and 102 % of control | dose: 100.0 mg/kg/injection, schedule: Q04DX002 (ip), vehicle: saline with Tween-80 105 % of control and 90 % of control | [15] 98 % of control | [11] 96 % of control and 97 % of control | dose: 200.0 mg/kg/injection, schedule: Q04DX002 (ip), vehicle: saline with Tween-80 90 % of control and 91 % of control | [16] 95 % of control | dose: 400.0 mg/kg/injection, schedule: Q01DX009 (ip), vehicle: saline with Tween-80 117 % of control and 91 % of control | dose: 400.0 mg/kg/injection, schedule: Q04DX002 (ip), vehicle: saline with Tween-80 101 % of control and 110 % of control | [17] 98 % of control

O=C(O)CCC1CCCCC1=O (stereo unspecified)
inactive: dose: 50.0 mg/kg/injection, schedule: Q01DX009 (ip), vehicle: Klucel (hydroxypropylcellulose) (HPC) 104 % of control | dose: 50.0 mg/kg/injection, schedule: Q04DX003 (ip), vehicle: Klucel (hydroxypropylcellulose) (HPC) 98 % of control | [4] 95 % of control | [5] 97 % of control | [6] 98 % of control | [7] 98 % of control

C1CN(CSCN2CCOCC2)CCO1
inactive: [13] 106 % of control | [21] 97 % of control | [14] 97 % of control

COC(=O)CCC(=O)Nc1cccc2cnccc12
inactive: [13] 102 % of control | [14] 102 % of control

— PubChem BioAssay AID248 (DTP/NCI, 2004)
